Assay results taken from ChEMBL document CHEMBL3885881, “DrugMatrix”.

Organism: Rattus norvegicus
Test: DrugMatrix - Regimen: Daily Repeat
Assay type: toxicity, organism-based, Sprague-Dawley
Design: regimen Daily Repeat, gender Male, age 6-8 weeks
Conditions: in vivo, po, route oral GAVAGE, […]; for ABSOLUTE BASOPHIL / ABSOLUTE EOSINOPHIL / ABSOLUTE LYMPHOCYTE / ABSOLUTE SEGMENTED NEUTROPHIL / BASOPHIL / EOSINOPHIL / ERYTHROCYTE COUNT / HEMATOCRIT / HEMOGLOBIN / LEUKOCYTE COUNT / LYMPHOCYTE / MEAN CORPUSCULAR HEMOGLOBIN / MEAN CORPUSCULAR HEMOGLOBIN CONCENTRATION / MEAN CORPUSCULAR VOLUME / MONOCYTE / NEUTROPHIL / NUCLEATED RED BLOOD CELLS / PLATELET COUNT: tissue Blood; for ALANINE AMINOTRANSFERASE / ALBUMIN / ALKALINE PHOSPHATASE / ASPARTATE AMINOTRANSFERASE / BLOOD UREA NITROGEN / CARBON DIOXIDE / CHLORIDE / CHOLESTEROL / CREATINE PHOSPHOKINASE / CREATININE / GLUCOSE / LACTATE DEHYDROGENASE / LIPASE / PHOSPHORUS / POTASSIUM / SODIUM / TOTAL BILIRUBIN / TOTAL PROTEIN / URIC ACID: tissue Plasma
[1] = 0 mg/kg, 72 h, dose level Control, time 3 day
[2] = 0 mg/kg, 120 h, dose level Control, time 5 day
[3] = 15 mg/kg, 72 h, dose level Low, time 3 day

Q: For `CCC(C)(C)C(=O)O[C@H]1C[C@@H](C)C=C2C=C[C@H](C)[C@H](CC[C@@H]3C[C@@H](O)CC(=O)O3)[C@H]21` [SIMVASTATIN], which “ABSOLUTE BASOPHIL” value [1] is on record?
A: 0 CELLS/uL

Q: What about the “ABSOLUTE EOSINOPHIL” value [1] of the same molecule?
A: 14 CELLS/uL

Q: What about the “ABSOLUTE LYMPHOCYTE” value [1] of the same molecule?
A: 11144.67 CELLS/uL

Q: And the “ABSOLUTE SEGMENTED NEUTROPHIL” value [1]?
A: 535.5 CELLS/uL

Q: And the BASOPHIL [1]?
A: 0%

Q: And the EOSINOPHIL [1]?
A: 0.17%

Q: And the “ERYTHROCYTE COUNT” value [1]?
A: 5.08 x10E6/uL

Q: And the HEMATOCRIT [1]?
A: 32.32%

Q: What about the HEMOGLOBIN [1] of the same molecule?
A: 12.87 G/DL

Q: And the “LEUKOCYTE COUNT” value [1]?
A: 11.72 x10E3/uL

Q: And the LYMPHOCYTE [1]?
A: 94.67%

Q: And the “MEAN CORPUSCULAR HEMOGLOBIN” value [1]?
A: 25.37 pg

Q: And the “MEAN CORPUSCULAR HEMOGLOBIN CONCENTRATION” value [1]?
A: 39.85 G/DL

Q: What about the “MEAN CORPUSCULAR VOLUME” value [1] of the same molecule?
A: 63.58 fL

Q: And the MONOCYTE [1]?
A: 0.17%

Q: And the NEUTROPHIL [1]?
A: 5%

Q: And the “NUCLEATED RED BLOOD CELLS” value [1]?
A: 0 /100WBC

Q: What about the “PLATELET COUNT” value [1] of the same molecule?
A: 1084 x10E3/uL

Q: What about the “ALANINE AMINOTRANSFERASE” value [1] of the same molecule?
A: 67.5 u/L

Q: What about the ALBUMIN [1] of the same molecule?
A: 4.02 G/DL

Q: And the “ALKALINE PHOSPHATASE” value [1]?
A: 374.17 u/L

Q: And the “ASPARTATE AMINOTRANSFERASE” value [1]?
A: 83.5 u/L

Q: And the “BLOOD UREA NITROGEN” value [1]?
A: 14.5 mg/dL

Q: What about the “CARBON DIOXIDE” value [1] of the same molecule?
A: 30 mmol/L

Q: What about the CHLORIDE [1] of the same molecule?
A: 100.5 MEQ/L

Q: What about the CHOLESTEROL [1] of the same molecule?
A: 71.33 mg/dL

Q: What about the “CREATINE PHOSPHOKINASE” value [1] of the same molecule?
A: 268.33 u/L

Q: And the CREATININE [1]?
A: 0.16 mg/dL

Q: And the GLUCOSE [1]?
A: 170.5 mg/dL

Q: What about the “LACTATE DEHYDROGENASE” value [1] of the same molecule?
A: 81.17 u/L

Q: What about the LIPASE [1] of the same molecule?
A: 16.67 u/L

Q: What about the PHOSPHORUS [1] of the same molecule?
A: 10.07 mg/dL

Q: What about the POTASSIUM [1] of the same molecule?
A: 5.03 MEQ/L

Q: And the SODIUM [1]?
A: 142.92 MEQ/L

Q: What about the “TOTAL BILIRUBIN” value [1] of the same molecule?
A: 0.17 mg/dL

Q: What about the “TOTAL PROTEIN” value [1] of the same molecule?
A: 5.63 G/DL

Q: And the “URIC ACID” value [1]?
A: 0.5 mg/dL

Q: And the “ABSOLUTE BASOPHIL” value [2]?
A: 0 CELLS/uL

Q: And the “ABSOLUTE EOSINOPHIL” value [2]?
A: 37.5 CELLS/uL

Q: And the “ABSOLUTE LYMPHOCYTE” value [2]?
A: 8049.5 CELLS/uL

Q: What about the “ABSOLUTE SEGMENTED NEUTROPHIL” value [2] of the same molecule?
A: 646.83 CELLS/uL

Q: What about the BASOPHIL [2] of the same molecule?
A: 0%

Q: And the EOSINOPHIL [2]?
A: 0.5%

Q: What about the “ERYTHROCYTE COUNT” value [2] of the same molecule?
A: 5.36 x10E6/uL

Q: And the HEMATOCRIT [2]?
A: 33.9%

Q: And the HEMOGLOBIN [2]?
A: 13.02 G/DL

Q: What about the “LEUKOCYTE COUNT” value [2] of the same molecule?
A: 8.82 x10E3/uL

Q: What about the LYMPHOCYTE [2] of the same molecule?
A: 90.17%

Q: And the “MEAN CORPUSCULAR HEMOGLOBIN” value [2]?
A: 24.32 pg

Q: And the “MEAN CORPUSCULAR HEMOGLOBIN CONCENTRATION” value [2]?
A: 38.42 G/DL

Q: And the “MEAN CORPUSCULAR VOLUME” value [2]?
A: 63.32 fL

Q: What about the MONOCYTE [2] of the same molecule?
A: 1.17%

Q: And the NEUTROPHIL [2]?
A: 8.17%

Q: And the “NUCLEATED RED BLOOD CELLS” value [2]?
A: 0.17 /100WBC

Q: And the “PLATELET COUNT” value [2]?
A: 1231.5 x10E3/uL

Q: And the “ALANINE AMINOTRANSFERASE” value [2]?
A: 62 u/L

Q: What about the ALBUMIN [2] of the same molecule?
A: 3.97 G/DL

Q: And the “ALKALINE PHOSPHATASE” value [2]?
A: 303.67 u/L

Q: What about the “ASPARTATE AMINOTRANSFERASE” value [2] of the same molecule?
A: 84.5 u/L

Q: What about the “BLOOD UREA NITROGEN” value [2] of the same molecule?
A: 14.83 mg/dL

Q: And the “CARBON DIOXIDE” value [2]?
A: 31.83 mmol/L

Q: And the CHLORIDE [2]?
A: 97 MEQ/L

Q: And the CHOLESTEROL [2]?
A: 68.83 mg/dL

Q: And the “CREATINE PHOSPHOKINASE” value [2]?
A: 411.33 u/L

Q: What about the CREATININE [2] of the same molecule?
A: 0.16 mg/dL

Q: And the GLUCOSE [2]?
A: 170.17 mg/dL

Q: What about the “LACTATE DEHYDROGENASE” value [2] of the same molecule?
A: 88.5 u/L

Q: What about the LIPASE [2] of the same molecule?
A: 9.5 u/L

Q: And the PHOSPHORUS [2]?
A: 9.98 mg/dL

Q: What about the POTASSIUM [2] of the same molecule?
A: 5.72 MEQ/L

Q: What about the SODIUM [2] of the same molecule?
A: 141.62 MEQ/L

Q: And the “TOTAL BILIRUBIN” value [2]?
A: 0.1 mg/dL

Q: And the “TOTAL PROTEIN” value [2]?
A: 5.67 G/DL

Q: What about the “URIC ACID” value [2] of the same molecule?
A: 0.52 mg/dL

Q: What about the “ABSOLUTE BASOPHIL” value [3] of the same molecule?
A: 0 CELLS/uL

Q: What about the “ABSOLUTE EOSINOPHIL” value [3] of the same molecule?
A: 0 CELLS/uL

Q: And the “ABSOLUTE LYMPHOCYTE” value [3]?
A: 9235.67 CELLS/uL

Q: What about the “ABSOLUTE SEGMENTED NEUTROPHIL” value [3] of the same molecule?
A: 962.33 CELLS/uL

Q: What about the BASOPHIL [3] of the same molecule?
A: 0%

Q: What about the EOSINOPHIL [3] of the same molecule?
A: 0%

Q: And the “ERYTHROCYTE COUNT” value [3]?
A: 5.23 x10E6/uL

Q: What about the HEMATOCRIT [3] of the same molecule?
A: 32.6%

Q: And the HEMOGLOBIN [3]?
A: 12.9 G/DL

Q: What about the “LEUKOCYTE COUNT” value [3] of the same molecule?
A: 10.33 x10E3/uL

Q: And the LYMPHOCYTE [3]?
A: 89.33%

Q: And the “MEAN CORPUSCULAR HEMOGLOBIN” value [3]?
A: 24.7 pg

Q: And the “MEAN CORPUSCULAR HEMOGLOBIN CONCENTRATION” value [3]?
A: 39.57 G/DL

Q: What about the “MEAN CORPUSCULAR VOLUME” value [3] of the same molecule?
A: 62.4 fL

Q: And the MONOCYTE [3]?
A: 1.33%

Q: And the NEUTROPHIL [3]?
A: 9.33%

Q: What about the “NUCLEATED RED BLOOD CELLS” value [3] of the same molecule?
A: 0 /100WBC

Q: And the “PLATELET COUNT” value [3]?
A: 1186.33 x10E3/uL

Q: What about the “ALANINE AMINOTRANSFERASE” value [3] of the same molecule?
A: 75 u/L

Q: What about the ALBUMIN [3] of the same molecule?
A: 4.07 G/DL

Q: And the “ALKALINE PHOSPHATASE” value [3]?
A: 310.67 u/L

Q: What about the “ASPARTATE AMINOTRANSFERASE” value [3] of the same molecule?
A: 85.33 u/L

Q: What about the “BLOOD UREA NITROGEN” value [3] of the same molecule?
A: 14 mg/dL

Q: What about the “CARBON DIOXIDE” value [3] of the same molecule?
A: 29.33 mmol/L

Q: And the CHLORIDE [3]?
A: 103 MEQ/L

Q: What about the CHOLESTEROL [3] of the same molecule?
A: 68.67 mg/dL

Q: And the “CREATINE PHOSPHOKINASE” value [3]?
A: 229.33 u/L

Q: What about the CREATININE [3] of the same molecule?
A: 0.12 mg/dL

Q: What about the GLUCOSE [3] of the same molecule?
A: 170.33 mg/dL

Q: And the “LACTATE DEHYDROGENASE” value [3]?
A: 76.33 u/L

Q: And the LIPASE [3]?
A: 10 u/L

Q: What about the PHOSPHORUS [3] of the same molecule?
A: 9.87 mg/dL

Q: What about the POTASSIUM [3] of the same molecule?
A: 5.16 MEQ/L

Q: What about the SODIUM [3] of the same molecule?
A: 146.93 MEQ/L

Q: And the “TOTAL BILIRUBIN” value [3]?
A: 0.13 mg/dL

Q: And the “TOTAL PROTEIN” value [3]?
A: 5.67 G/DL

Q: What about the “URIC ACID” value [3] of the same molecule?
A: 0.77 mg/dL
